# From paper PMC11571207, “Stereorandomized Oncocins with Preserved Ribosome Binding and Antibacterial Activity” (Journal of Medicinal Chemistry, 2024)
# Like-named read-outs stand apart in the source and are kept apart here. Non-standard residues stand in square brackets, D forms with d. Residues, ends and D or L forms follow the SMILES beside them.
# Key:
# [1] = system: E. coli BW25113 sbmA::kan; settings: Table S1, sbmA::kan mutant, 16-20 h at 37 °C; for MIC E. coli BW25113 SbmA-, 12.5% MH: 12.5% Müller-Hinton medium pH 7.4; for MIC E. coli BW25113 SbmA-, Full MH: full Müller-Hinton medium pH 7.4
# Experimental: (§1) Minimum inhibitory concentration assay
# (§2) Antimicrobial activity was assayed against P. aeruginosa PAO1, K. pneumoniae NCTC418, E. coli W3110, A. baumannii ATCC 19606, methicillin-resistant S. aureus COL (MRSA), and for selected peptides on P. aeruginosa PA14 and the polymyxin-B-resistant derivative PA14 2P4, as well as the clinical isolates ZEM-1A and ZEM9A, K. pneumoniae OXA-48, S. aureus Newman, Enterobacter cloacae and Burkholderia cenocepacia. The minimal inhibitory concentration (MIC) was determined by using broth microdilution method. A colo ny of bacteria was picked and grown in Luria-Bertani (LB) medium overnight at 37°C. For E. coli BW25113 sbmA::kan the medium was supplemented with 25 mg/L of kanamycin. The next day, the culture was then regrown in LB medium to log phase (OD600 = 0.6 to 0.8), which lasted approximately 4 h, and diluted to an OD600 of 0.022 in the desired medium. Stock solutions of 1 mg/mL of the samples were prepared in sterilized milliQ water and diluted to the beginning concentration of 64 μg/mL in 300 μL Mueller Hinton (MH)-medium. The diluted samples were added to first well of 96-well microtiter plate (TPP, untreated, Faust Laborbedarf, AG, Schaffhausen) and diluted serially by ½. Finally, 4 μL of the bacterial suspension was inoculated into the sample solutions (150 μL/well) with a final inoculation of about 5∙10^5 CFU/mL. The plates were then incubated at 37°C for 15-18h. For each assay, sterility (broth only) and growth control (broth with bacterial inoculum, without antibiotics) were checked with two columns in the plate. The next day, 15 μL of 3-(4,5-dimethylthiazol-2-yl)-2,5-diphenyltetrazolium bromide (MTT) was added to each well of the plate, such a way that MIC was defined as the lowest concentration of the peptide that inhibited visible growth of the tested […]
# (§3) Table S1. Activity of stereorandomized and diastereomeric oncocins against E. coli BW25113 WT and BW25113 sbmA::kan mutant in full and 12.5% MH, at pH 7.4. […]
# (§4) a) Minimum inhibitory concentration (MIC, μg/mL) was determined on E. coli BW25113 WT and […]
# E. coli BW25113 WT = settings: Table S1, 16-20 h at 37 °C; for MIC E. coli BW25113 WT, 12.5% MH: 12.5% Müller-Hinton medium pH 7.4; for MIC E. coli BW25113 WT, Full MH: full Müller-Hinton medium pH 7.4
# Experimental: as §1, §2, §3, §4
# [2] = system: P. aeruginosa PA14 4.18 (pmrB); settings: for MIC P. aeruginosa PA14 4.18 (pmrB), 12.5% MHB / MIC P. aeruginosa PA14 4.18 (pmrB), full MHB: polymyxin B resistant strain, 16–20 h at 37 °C; for MIC P. aeruginosa PA14 4.18 (pmrB), 12.5% MHB: 12.5% MHB pH 7.4; for MIC P. aeruginosa PA14 4.18 (pmrB), full MHB: full MHB pH 7.4; for MIC P. aeruginosa PA14 4.18: supplement CSV
# S. aureus COL (MRSA) = test: microbe, parasite or virus in culture; settings: for MIC S. aureus, 12.5% MHB / MIC S. aureus, Full MHB: S. aureus COL (MRSA), 16–20 h at 37 °C; for MIC S. aureus, 12.5% MHB: 12.5% Müller–Hinton medium; for MIC S. aureus, Full MHB: full Müller–Hinton medium; for MIC S. aureus COL (MRSA): supplement CSV
# Procedure, shortened: (§5)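 Read-out was visible growth after MTT addition, the MIC being the lowest inhibitory peptide concentration. Bacteria grown to log phase in LB were exposed in MH medium to peptide from 64 μg/mL in twofold dilutions for 15-18h at 37°C.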
# K. pneumoniae NCTC 418 = test: microbe, parasite or virus in culture; settings: for MIC K. pneumoniae, 12.5% MHB / MIC K. pneumoniae, Full MHB: K. pneumoniae NCTC 418, 16–20 h at 37 °C; for MIC K. pneumoniae, 12.5% MHB: 12.5% Müller–Hinton medium; for MIC K. pneumoniae, Full MHB: full Müller–Hinton medium; for MIC K. pneumoniae NCTC418: supplement CSV
# Procedure, shortened: as §5
# A. baumannii ATCC19606 = test: microbe, parasite or virus in culture; settings: for MIC A. baumannii, 12.5% MHB / MIC A. baumannii, Full MHB: A. baumannii ATCC19606, 16–20 h at 37 °C; for MIC A. baumannii, 12.5% MHB: 12.5% Müller–Hinton medium; for MIC A. baumannii, Full MHB: full Müller–Hinton medium; for MIC A. baumannii ATCC19606: supplement CSV
# Procedure, shortened: as §5
# P. aeruginosa PAO1 = test: microbe, parasite or virus in culture; settings: for MIC P. aeruginosa, 12.5% MHB / MIC P. aeruginosa, Full MHB: P. aeruginosa PAO1, 16–20 h at 37 °C; for MIC P. aeruginosa, 12.5% MHB: 12.5% Müller–Hinton medium; for MIC P. aeruginosa, Full MHB: full Müller–Hinton medium; for MIC P. aeruginosa PAO1: supplement CSV
# Procedure, shortened: as §5
# E. coli W3110 = test: microbe, parasite or virus in culture; settings: for MIC E. coli, 12.5% MHB / MIC E. coli, Full MHB: E. coli W3110, 16–20 h at 37 °C, broth microdilution; for MIC E. coli, 12.5% MHB: 12.5% Müller–Hinton medium; for MIC E. coli, Full MHB: full Müller–Hinton medium; for MIC E. coli W3110: supplement CSV
# Procedure, shortened: as §5
# human red blood cells = test: Hemolysis assay, minimum hemolytic concentration; settings: for Haemolysis on hRBC, MHC: 2.5% human red blood cells (final) in 10 mM phosphate, 150 mM NaCl, pH 7.4, 25 °C, 4 h, visual inspection; for MHC human red blood cells: supplement CSV
SMILES,"MIC E. coli BW25113 SbmA-, 12.5% MH [1] [µg/mL]","MIC E. coli BW25113 SbmA-, Full MH [1] [µg/mL]","MIC E. coli BW25113 WT, 12.5% MH (E. coli BW25113 WT) [µg/mL]","MIC E. coli BW25113 WT, Full MH (E. coli BW25113 WT) [µg/mL]","MIC P. aeruginosa PA14 4.18 (pmrB), 12.5% MHB [2]","MIC P. aeruginosa PA14 4.18 (pmrB), full MHB [2]",MIC P. aeruginosa PA14 4.18 ([2]; 12.5% MH pH 7.4) [µg/mL],MIC P. aeruginosa PA14 4.18 ([2]; full MH pH 7.4) [µg/mL],"MIC S. aureus, 12.5% MHB (S. aureus COL (MRSA))","MIC S. aureus, Full MHB (S. aureus COL (MRSA))",MIC S. aureus COL (MRSA) (S. aureus COL (MRSA); 12.5% MH pH 7.4) [µg/mL],MIC S. aureus COL (MRSA) (S. aureus COL (MRSA); full MH pH 7.4) [µg/mL],"MIC K. pneumoniae, 12.5% MHB (K. pneumoniae NCTC 418) [µg/mL]","MIC K. pneumoniae, Full MHB (K. pneumoniae NCTC 418) [µg/mL]",MIC K. pneumoniae NCTC418 (K. pneumoniae NCTC 418; 12.5% MH pH 7.4) [µg/mL],MIC K. pneumoniae NCTC418 (K. pneumoniae NCTC 418; full MH pH 7.4) [µg/mL],"MIC A. baumannii, 12.5% MHB (A. baumannii ATCC19606) [µg/mL]","MIC A. baumannii, Full MHB (A. baumannii ATCC19606) [µg/mL]",MIC A. baumannii ATCC19606 (A. baumannii ATCC19606; 12.5% MH pH 7.4) [µg/mL],MIC A. baumannii ATCC19606 (A. baumannii ATCC19606; full MH pH 7.4) [µg/mL],other results
CC[C@@H](C)[C@@H](NC(=O)[C@@H](CCCNC(=N)N)NC(=O)[C@@H](CCCNC(=N)N)NC(=O)[C@H]1CCCN1C(=O)[C@H]1CCCN1C(=O)[C@@H](CCCNC(=N)N)NC(=O)[C@H]1CCCN1C(=O)[C@@H](CCCNC(=N)N)NC(=O)[C@H]1CCCN1C(=O)[C@@H](CC(C)C)NC(=O)[C@@H](Cc1ccc(O)cc1)NC(=O)[C@H]1CCCN1C(=O)[C@H]1CCCN1C(=O)[C@@H](CCCCN)NC(=O)[C@@H](CC(=O)O)NC(=O)[C@H](N)C(C)C)C(=O)N[C@H](Cc1ccc(O)cc1)C(=O)N[C@H](CC(N)=O)C(=O)N[C@H](CCCNC(=N)N)C(N)=O [D-Onc] (H-[dV][dD][dK][dP][dP][dY][dL][dP][dR][dP][dR][dP][dP][dR][dR][dI][dY][dN][dR]-NH2),16,> 64,16,> 64,16 µg/mL,> 64 µg/mL,16,>64,>64 / 64 μg/mL,>64 / 64 μg/mL,64,>64,> 16,> 64,>16,>64,16,> 64,16,>64,"MIC P. aeruginosa, 12.5% MHB (P. aeruginosa PAO1): 8 µg/mL; MIC P. aeruginosa, Full MHB (P. aeruginosa PAO1): > 64 µg/mL; MIC P. aeruginosa PAO1 (P. aeruginosa PAO1; 12.5% MH pH 7.4): 8 µg/mL; MIC P. aeruginosa PAO1 (P. aeruginosa PAO1; full MH pH 7.4): >64 µg/mL; MIC E. coli, 12.5% MHB (E. coli W3110): 8 µg/mL; MIC E. coli, Full MHB (E. coli W3110): 32 µg/mL; MIC E. coli W3110 (E. coli W3110; 12.5% MH pH 7.4): 8 µg/mL; MIC E. coli W3110 (E. coli W3110; full MH pH 7.4): 32 µg/mL; Haemolysis on hRBC, MHC (human red blood cells): >1000 µg/mL; MHC human red blood cells (human red blood cells): >1000 µg/mL"
CC[C@H](C)[C@H](NC(=O)[C@H](CCCNC(=N)N)NC(=O)[C@H](CCCNC(=N)N)NC(=O)[C@@H]1CCCN1C(=O)[C@@H]1CCCN1C(=O)[C@H](CCCNC(=N)N)NC(=O)[C@@H]1CCCN1C(=O)[C@H](CCCNC(=N)N)NC(=O)[C@@H]1CCCN1C(=O)[C@@H](CC(C)C)NC(=O)[C@H](Cc1ccc(O)cc1)NC(=O)[C@@H]1CCCN1C(=O)[C@@H]1CCCN1C(=O)[C@H](CCCCN)NC(=O)[C@H](CC(=O)O)NC(=O)[C@@H](N)C(C)C)C(=O)N[C@@H](Cc1ccc(O)cc1)C(=O)N[C@@H](CC(N)=O)C(=O)N[C@@H](CCCNC(=N)N)C(N)=O [DL7-Onc] (H-VDKPPY[dL]PRPRPPRRIYNR-NH2),32,> 64,32,> 64,>32/>32 μg/mL,>32/>32 μg/mL,>32,>32,>64 / >64 μg/mL,>64 / >64 μg/mL,>64,>64,> 16,> 64,>16,>64,> 16,> 64,>16,>64,"MIC P. aeruginosa, 12.5% MHB (P. aeruginosa PAO1): > 16 µg/mL; MIC P. aeruginosa, Full MHB (P. aeruginosa PAO1): > 64 µg/mL; MIC P. aeruginosa PAO1 (P. aeruginosa PAO1; 12.5% MH pH 7.4): >16 µg/mL; MIC P. aeruginosa PAO1 (P. aeruginosa PAO1; full MH pH 7.4): >64 µg/mL; MIC E. coli, 12.5% MHB (E. coli W3110): 8 µg/mL; MIC E. coli, Full MHB (E. coli W3110): > 64 µg/mL; MIC E. coli W3110 (E. coli W3110; 12.5% MH pH 7.4): 8 µg/mL; MIC E. coli W3110 (E. coli W3110; full MH pH 7.4): >64 µg/mL; Haemolysis on hRBC, MHC (human red blood cells): >1000 µg/mL; MHC human red blood cells (human red blood cells): >1000 µg/mL"
"CC[C@H](C)[C@H](NC(=O)[C@@H](CCCNC(=N)N)NC(=O)[C@H](CCCNC(=N)N)NC(=O)[C@@H]1CCCN1C(=O)[C@@H]1CCCN1C(=O)[C@H](CCCNC(=N)N)NC(=O)[C@@H]1CCCN1C(=O)[C@H](CCCNC(=N)N)NC(=O)[C@@H]1CCCN1C(=O)[C@H](CC(C)C)NC(=O)[C@H](Cc1ccc(O)cc1)NC(=O)[C@@H]1CCCN1C(=O)[C@@H]1CCCN1C(=O)[C@H](CCCCN)NC(=O)[C@H](CC(=O)O)NC(=O)[C@@H](N)C(C)C)C(=O)N[C@@H](Cc1ccc(O)cc1)C(=O)N[C@@H](CC(N)=O)C(=O)N[C@H](CCCNC(=N)N)C(N)=O [Onc112, reference compound] (H-VDKPPYLPRPRPPR[dR]IYN[dR]-NH2)",4,> 64,4,16,16 µg/mL,> 32 µg/mL,16,>32,32 µg/mL,> 64 µg/mL,32,>64,2,4,2,4,4,32,4,32,"MIC P. aeruginosa, 12.5% MHB (P. aeruginosa PAO1): 4 µg/mL; MIC P. aeruginosa, Full MHB (P. aeruginosa PAO1): 64 µg/mL; MIC P. aeruginosa PAO1 (P. aeruginosa PAO1; 12.5% MH pH 7.4): 4 µg/mL; MIC P. aeruginosa PAO1 (P. aeruginosa PAO1; full MH pH 7.4): 64 µg/mL; MIC E. coli, 12.5% MHB (E. coli W3110): 2 µg/mL; MIC E. coli, Full MHB (E. coli W3110): 4 µg/mL; MIC E. coli W3110 (E. coli W3110; 12.5% MH pH 7.4): 2 µg/mL; MIC E. coli W3110 (E. coli W3110; full MH pH 7.4): 4 µg/mL; Haemolysis on hRBC, MHC (human red blood cells): >1000 µg/mL; MHC human red blood cells (human red blood cells): >1000 µg/mL"
